Source: US8268848B2, “Cyclopropane compound” (Eisai R&D Management Co., Ltd., priority 2010, dated 2012)
Read-outs that look alike come from different tables or passages of the source.

Key:
OX1 = target: T1, OX1 (Homo sapiens, UniProt O43613); assay: Measurement of orexin receptor-binding ability ([125I]-OX-A, cell membranes, OX1); set-up: expressed in transfected cells; host or cells: CHO cells (membrane preparation)
T1 sequence (O43613 1-425): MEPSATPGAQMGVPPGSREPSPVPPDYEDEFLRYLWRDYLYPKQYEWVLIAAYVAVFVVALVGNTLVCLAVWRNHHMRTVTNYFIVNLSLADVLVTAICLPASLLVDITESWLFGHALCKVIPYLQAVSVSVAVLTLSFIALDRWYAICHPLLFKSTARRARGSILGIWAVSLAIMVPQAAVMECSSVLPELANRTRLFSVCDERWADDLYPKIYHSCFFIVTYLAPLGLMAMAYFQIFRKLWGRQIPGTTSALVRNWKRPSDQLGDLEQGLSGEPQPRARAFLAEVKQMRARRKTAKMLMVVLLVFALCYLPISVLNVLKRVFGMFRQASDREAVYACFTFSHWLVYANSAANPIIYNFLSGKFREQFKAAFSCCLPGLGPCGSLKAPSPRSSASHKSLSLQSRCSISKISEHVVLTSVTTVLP

OX2 = target: T2, OX2 (Homo sapiens, UniProt O43614); assay: Measurement of orexin receptor-binding ability ([125I]-OX-A, cell membranes, OX2); set-up: expressed in transfected cells; host or cells: CHO cells (membrane preparation); conditions: membranes of recombinant CHO cells expressing OX2, 0.2 nM [125I]-OX-A
T2 sequence (O43614 1-444): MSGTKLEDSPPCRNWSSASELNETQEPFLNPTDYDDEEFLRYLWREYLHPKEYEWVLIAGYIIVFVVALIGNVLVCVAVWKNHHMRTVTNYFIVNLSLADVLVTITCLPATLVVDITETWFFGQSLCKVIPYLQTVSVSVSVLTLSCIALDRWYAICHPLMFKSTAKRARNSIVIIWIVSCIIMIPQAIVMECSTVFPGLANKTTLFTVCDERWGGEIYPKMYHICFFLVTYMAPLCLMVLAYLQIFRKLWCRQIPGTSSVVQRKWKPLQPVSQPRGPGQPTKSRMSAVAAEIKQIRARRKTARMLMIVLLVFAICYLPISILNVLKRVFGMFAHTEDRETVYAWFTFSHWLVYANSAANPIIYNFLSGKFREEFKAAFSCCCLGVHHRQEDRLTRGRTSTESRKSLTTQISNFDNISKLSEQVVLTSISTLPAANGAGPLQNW

[1] = membranes of recombinant CHO cells expressing OX1, 0.2 nM [125I]-OX-A, read-out: OX1 (IC50)

SMILES	IC50 (OX1)	IC50 (OX2; OX2 (IC50) nM)	IC50 (OX1; [1])	IC50 (OX2; read-out: OX2 (IC50))
Cc1ncc(OC[C@@]2(c3ccc(O)c(F)c3)C[C@H]2C(=O)Nc2ccc(F)cn2)c(C)n1 [Example 321, (1R,2S)-2-{[(2,4-dimethylpyrimidin-5-yl)oxy]methyl}-2-(3-fluoro-4-hydroxyphenyl)-N-(5-fluoropyridin-2-yl)cyclopropanecarboxamide]	20 nM	7 nM	–	–
CCc1nc(C)ncc1OC[C@@]1(c2cccc(F)c2)C[C@H]1C(=O)Nc1ccc(C#N)cn1 [Example 242, (1R,2S)-N-(5-cyanopyridin-2-yl)-2-{[(4-ethyl-2-methylpyrimidin-5-yl)oxy]methyl}-2-(3-fluorophenyl)cyclopropanecarboxamide]	–	–	6 nM	4 nM
Cc1ncc(OC[C@@]2(c3ccccc3)C[C@H]2C(=O)Nc2ccnc(C#N)c2)c(C)n1 [Example 41, (1R,2S)-N-(2-cyanopyridin-4-yl)-2-{[(2,4-dimethylpyrimidin-5-yl)oxy]methyl}-2-phenylcyclopropanecarboxamide]	–	–	125 nM	8 nM
Cc1ccc(C2(COc3cnc(C)nc3C)CC2C(=O)Nc2ccc(F)cn2)cc1 (centres unmarked) [Example 174]	33 nM	55 nM	–	–
Cc1ncc(N(C)C[C@@]2(c3cccc(F)c3)C[C@H]2C(=O)Nc2cc(C)c(Cl)cn2)c(C)n1 [Example 295, (1R,2S)-N-(5-chloro-4-methylpyridin-2-yl)-2-[N-(2,4-dimethylpyrimidin-5-yl)methylaminomethyl]-2-(3-fluorophenyl)cyclopropanecarboxamide]	–	–	5 nM	6 nM
Cc1ncc(OC[C@@]2(c3cccc(F)c3)C[C@H]2c2nc3ccccc3c(=O)[nH]2)c(C)n1 [Example 310]	–	–	40 nM	13 nM
COCc1nc(C)ncc1OC[C@@]1(c2cc(F)cc(F)c2)C[C@H]1C(=O)Nc1ccccn1 [Example 218, (1R,2S)-2-(3,5-difluorophenyl)-2-{[(4-methoxymethyl-2-methylpyrimidin-5-yl)oxy]methyl}-N-(pyridin-2-yl)cyclopropanecarboxamide]	–	–	10 nM	3 nM
CCc1nc(C)ncc1OC[C@@]1(c2cccc(F)c2)C[C@H]1C(=O)Nc1ccc(F)cn1 [Example 241, (1R,2S)-2-{[(4-ethyl-2-methylpyrimidin-5-yl)oxy]methyl}-2-(3-fluorophenyl)-N-(5-fluoropyridin-2-yl)cyclopropanecarboxamide]	2 nM	2.2 nM	–	–
Cc1ncc(OCC2(c3ccc(Cl)cc3)CC2C(=O)Nc2cccnc2)c(C)n1 (centres unmarked) [Example 160]	–	–	389 nM	28 nM
Cc1ncc(OCC2(c3ccccc3Cl)CC2C(=O)Nc2ccc(Cl)cn2)c(C)n1 (centres unmarked) [Example 152]	58 nM	36 nM	–	–
Cc1ncc(OC[C@@]2(c3ccccc3)C[C@H]2C(=O)Nc2ncc(C)s2)c(C)n1 [Example 2]	–	–	296 nM	19 nM
Cc1ncc(OCC2(c3ccc(F)cc3)CC2C(=O)Nc2cccnc2)c(C)n1 (centres unmarked) [Example 103]	–	–	2940 nM	96 nM
Cc1ncc(OC[C@@]2(c3cccc(F)c3)C[C@H]2C(=O)Nc2ncc(F)cc2O)c(C)n1 [Example 319, (1R,2S)-2-{{[(2,4-dimethylpyrimidin-5-yl)oxy]methyl}}-N-(5-fluoro-3-hydroxypyridin-2-yl)-2-(3-fluorophenyl)cyclopropanecarboxamide]	> 200 nM	128 nM	–	–
Cc1ncc(OC[C@@]2(c3cc(F)cc(F)c3)C[C@H]2C(=O)Nc2ccc(C#N)cn2)c(C)n1 [Example 137, (1R,2S)-N-(5-cyanopyridin-2-yl)-2-(3,5-difluorophenyl)-2-{[(2,4-dimethylpyrimidin-5-yl)oxy]methyl}cyclopropanecarboxamide]	97 nM	4 nM	–	–
Cc1ncc(OC[C@@]2(c3ccc(F)cc3)C[C@H]2C(=O)Nc2ccccn2)c(C)n1 [Example 110]	340 nM	110 nM	–	–
Cc1ncc(OC[C@@]2(c3ccc(F)c(F)c3)C[C@H]2C(=O)Nc2ccc(F)cn2)c(C)n1 [Example 169, (1R,2S)-2-(3,4-difluorophenyl)-2-{[(2,4-dimethylpyrimidin-5-yl)oxy]methyl}-N-(5-fluoropyridin-2-yl)cyclopropanecarboxamide]	14 nM	4 nM	–	–
COc1ncc(OC[C@@]2(c3ccccc3)C[C@H]2C(=O)Nc2ccc(C#N)cn2)c(C)n1 [Example 127, (1R,2S)-N-(5-cyanopyridin-2-yl)-2-{[(2-methoxy-4-methylpyrimidin-5-yl)oxy]methyl}-2-phenylcyclopropanecarboxamide]	–	–	1100 nM	80 nM

SMILES	IC50 (OX1)	IC50 (OX2; OX2 (IC50) nM)	IC50 (OX1; [1])	IC50 (OX2; read-out: OX2 (IC50))
Cc1ccc(NC(=O)[C@@H]2C[C@@]2(COc2cnc(C)nc2C)c2cccc(F)c2)nc1 [Example 278]	76 nM	10 nM	–	–
COc1ccccc1C1(COc2cnc(C)nc2C)CC1C(=O)Nc1ccc(F)cn1 (centres unmarked) [Example 125]	1050 nM	84 nM	–	–
Cc1ncc(OCC2(c3ccccc3Cl)CC2C(=O)Nc2ccc(F)cn2)c(C)n1 (centres unmarked) [Example 151]	102 nM	25 nM	–	–
Cc1ncc(OC[C@@]2(c3ccccc3)C[C@H]2C(=O)Nc2ccc(F)cc2)c(C)n1 [Example 77, (1R,2S)-2-{[(2,4-dimethylpyrimidin-5-yl)oxy]methyl}-N-(4-fluorophenyl)-2-phenylcyclopropanecarboxamide]	–	–	41 nM	24 nM
COc1cncc(NC(=O)[C@@H]2C[C@@]2(COc2cnc(C)nc2C)c2ccc(F)cc2)c1 [Example 112]	–	–	1020 nM	18 nM
CCc1ncc(OC[C@@]2(c3ccccc3)C[C@H]2C(=O)Nc2ccc(Cl)cn2)c(C)n1 [Example 128, (1R,2S)-N-(5-chloropyridin-2-yl)-2-{[(2-ethyl-4-methylpyrimidin-5-yl)oxy]methyl}-2-phenylcyclopropanecarboxamide]	–	–	231 nM	75 nM
Cc1ncc(OC[C@@]2(c3ccccc3)C[C@H]2C(=O)Nc2ccc3c(c2)NC(=O)CO3)c(C)n1 [Example 23]	–	–	1700 nM	67 nM
COCc1nc(C)ncc1OC[C@@]1(c2ccccc2)C[C@H]1C(=O)Nc1ccc(C#N)cn1 [Example 140, (1R,2S)-N-(5-cyanopyridin-2-yl)-2-{[(4-(methoxymethyl)-2-methylpyrimidin-5-yl)oxy]methyl}-2-phenylcyclopropanecarboxamide]	–	–	44 nM	8.9 nM
Cc1ncc(OC[C@@]2(c3cccc(F)c3)C[C@H]2C(=O)Nc2ccc(F)c(O)n2)c(C)n1 [Example 325, (1R,2S)-2-{[(2,4-dimethylpyrimidin-5-yl)oxy]methyl}-N-(5-fluoro-6-hydroxypyridin-2-yl)-2-(3-fluorophenyl)cyclopropanecarboxamide]	158 nM	20 nM	–	–
COc1cccc(C2(COc3cnc(C)nc3C)CC2C(=O)Nc2ccc(C#N)cn2)c1 (centres unmarked) [Example 183]	337 nM	42 nM	–	–
Cc1ncc(OC[C@@]2(c3ccccc3)C[C@H]2C(=O)Nc2cc(F)cc(F)c2)c(C)n1 [Example 31]	–	–	222 nM	26 nM
COCc1ccnc(NC(=O)[C@@H]2C[C@@]2(COc2cnc(C)nc2C)c2ccccc2)c1 [Example 14]	–	–	302 nM	16 nM
Cc1ncc(OC[C@@]2(c3ccccc3)C[C@H]2C(=O)Nc2cc(C(F)F)ccn2)c(C)n1 [Example 15]	213 nM	41 nM	–	–
COCc1nc(C)ncc1OC[C@@]1(c2cc(F)cc(F)c2)C[C@H]1C(=O)Nc1ccc(F)cc1 [Example 219, (1R,2S)-2-(3,5-difluorophenyl)-N-(4-fluorophenyl)-2-{[(4-methoxymethyl-2-methylpyrimidin-5-yl)oxy]methyl}cyclopropanecarboxamide]	–	–	10 nM	3 nM
Cc1ccnc(NC(=O)[C@@H]2C[C@@]2(COc2cnc(C)nc2C)c2ccccc2)c1 [Example 47]	–	–	228 nM	29 nM
Cc1ncc(OC[C@@]2(c3ccc(F)c(F)c3)C[C@H]2C(=O)Nc2ccc(Cl)cn2)c(C)n1 [Example 168, (1R,2S)-N-(5-chloropyridin-2-yl)-2-(3,4-difluorophenyl)-2-{[(2,4-dimethylpyrimidin-5-yl)oxy]methyl}cyclopropanecarboxamide]	15 nM	4 nM	–	–
Cc1ncc(OC[C@@]2(c3ccccc3)C[C@H]2C(=O)Nc2cc(F)cc(F)n2)c(C)n1 [Example 76-1, (1R,2S)-N-(4,6-difluoropyridin-2-yl)-2-{[(2,4-dimethylpyrimidin-5-yl)oxy]methyl}-2-phenylcyclopropanecarboxamide]	489 nM	61 nM	–	–
